From ChEMBL document CHEMBL5442175, “EUbOPEN Chemogenomics Library - PDSP Secondary Binding” (2024) come the findings set out here.

Where a name gives a salt, the structure may show the parent alone.

Broadly, the Ki is the equilibrium dissociation constant of an inhibitor or competing ligand from its target.

Assay [1] concerns the target 5-hydroxytryptamine receptor 2A (Homo sapiens, UniProt P28223). The assay is described as follows: PDSP Secondary Binding target: HTR2A - Compounds are tested at 10 uM concentration, plate are incubated at room temperature in the dark for 90 minutes. Reaction are stopped by vacuum filtration onto 0.3% polyethyleneimine soaked filter mats using Filtermate harvester. Scintillation cocktail is then melted onto microwave-dried filters on a hot plate and the radio activity is counted in Microbia counter.

Assay [2] addresses D(1B) dopamine receptor (Homo sapiens, UniProt P21918). The assay is described as follows: PDSP Secondary Binding target: DRD5 - Compounds are tested at 10 uM concentration, plate are incubated at room temperature in the dark for 90 minutes. Reaction are stopped by vacuum filtration onto 0.3% polyethyleneimine soaked filter mats using Filtermate harvester. Scintillation cocktail is then melted onto microwave-dried filters on a hot plate and the radio activity is counted in Microbia counter.

Assay [3] concerns the target 5-hydroxytryptamine receptor 1D (Homo sapiens, UniProt P28221). The assay is described as follows: PDSP Secondary Binding target: HTR1D - Compounds are tested at 10 uM concentration, plate are incubated at room temperature in the dark for 90 minutes. Reaction are stopped by vacuum filtration onto 0.3% polyethyleneimine soaked filter mats using Filtermate harvester. Scintillation cocktail is then melted onto microwave-dried filters on a hot plate and the radio activity is counted in Microbia counter.

Assay [4] addresses T1, 5-hydroxytryptamine receptor 1A (Homo sapiens, UniProt P08908).
T1 sequence (P08908 whole entry): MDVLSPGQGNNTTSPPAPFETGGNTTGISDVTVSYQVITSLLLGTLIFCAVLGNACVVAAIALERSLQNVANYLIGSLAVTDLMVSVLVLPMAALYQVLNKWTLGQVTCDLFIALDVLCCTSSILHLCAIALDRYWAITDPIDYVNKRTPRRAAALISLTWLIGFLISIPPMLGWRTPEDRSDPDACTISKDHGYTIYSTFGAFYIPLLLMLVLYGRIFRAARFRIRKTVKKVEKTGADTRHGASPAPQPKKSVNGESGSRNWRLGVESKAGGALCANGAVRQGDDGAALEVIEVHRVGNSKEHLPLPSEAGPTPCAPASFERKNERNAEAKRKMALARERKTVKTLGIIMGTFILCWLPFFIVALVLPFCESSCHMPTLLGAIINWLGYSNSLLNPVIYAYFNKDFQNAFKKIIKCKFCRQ
The assay is described as follows: PDSP Secondary Binding target: HTR1A - Compounds are tested at 10 uM concentration, plate are incubated at room temperature in the dark for 90 minutes. Reaction are stopped by vacuum filtration onto 0.3% polyethyleneimine soaked filter mats using Filtermate harvester. Scintillation cocktail is then melted onto microwave-dried filters on a hot plate and the radio activity is counted in Microbia counter.

Assay [5] deals with T2, Muscarinic acetylcholine receptor M1 (Homo sapiens, UniProt P11229).
T2 sequence (P11229 whole entry): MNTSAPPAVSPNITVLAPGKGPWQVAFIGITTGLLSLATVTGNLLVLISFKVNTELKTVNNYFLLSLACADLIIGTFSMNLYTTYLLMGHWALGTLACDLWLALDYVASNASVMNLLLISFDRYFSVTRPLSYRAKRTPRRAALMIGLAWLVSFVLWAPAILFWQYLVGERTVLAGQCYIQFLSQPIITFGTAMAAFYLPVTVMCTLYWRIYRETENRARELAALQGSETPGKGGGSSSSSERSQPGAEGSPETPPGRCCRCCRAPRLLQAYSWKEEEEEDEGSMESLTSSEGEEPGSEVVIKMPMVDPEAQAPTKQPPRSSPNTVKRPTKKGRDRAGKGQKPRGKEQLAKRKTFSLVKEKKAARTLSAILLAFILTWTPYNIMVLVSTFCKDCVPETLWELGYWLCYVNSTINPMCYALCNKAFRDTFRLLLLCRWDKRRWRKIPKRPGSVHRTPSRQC
The assay is described as follows: PDSP Secondary Binding target: CHRM1 - Compounds are tested at 10 uM concentration, plate are incubated at room temperature in the dark for 90 minutes. Reaction are stopped by vacuum filtration onto 0.3% polyethyleneimine soaked filter mats using Filtermate harvester. Scintillation cocktail is then melted onto microwave-dried filters on a hot plate and the radio activity is counted in Microbia counter.

The target of assay [6] is Kappa-type opioid receptor (Homo sapiens, UniProt P41145). The assay is described as follows: PDSP Secondary Binding target: OPRK1 - Compounds are tested at 10 uM concentration, plate are incubated at room temperature in the dark for 90 minutes. Reaction are stopped by vacuum filtration onto 0.3% polyethyleneimine soaked filter mats using Filtermate harvester. Scintillation cocktail is then melted onto microwave-dried filters on a hot plate and the radio activity is counted in Microbia counter.
Chain of Kappa-type opioid receptor (P41145 whole entry): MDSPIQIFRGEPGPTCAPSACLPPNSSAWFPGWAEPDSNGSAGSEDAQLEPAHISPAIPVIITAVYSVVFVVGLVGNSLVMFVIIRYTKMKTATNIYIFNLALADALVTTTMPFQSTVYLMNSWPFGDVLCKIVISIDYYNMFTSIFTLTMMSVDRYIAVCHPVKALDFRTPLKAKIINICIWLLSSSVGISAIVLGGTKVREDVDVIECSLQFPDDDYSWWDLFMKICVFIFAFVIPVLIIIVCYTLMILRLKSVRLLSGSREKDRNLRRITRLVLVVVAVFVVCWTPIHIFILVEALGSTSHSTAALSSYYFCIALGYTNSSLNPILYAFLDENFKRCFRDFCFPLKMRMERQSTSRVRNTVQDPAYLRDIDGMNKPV

The target in assay [7] is 5-hydroxytryptamine receptor 1B (Homo sapiens, UniProt P28222). The assay is described as follows: PDSP Secondary Binding target: HTR1B - Compounds are tested at 10 uM concentration, plate are incubated at room temperature in the dark for 90 minutes. Reaction are stopped by vacuum filtration onto 0.3% polyethyleneimine soaked filter mats using Filtermate harvester. Scintillation cocktail is then melted onto microwave-dried filters on a hot plate and the radio activity is counted in Microbia counter.
Chain of 5-hydroxytryptamine receptor 1B (P28222 whole entry): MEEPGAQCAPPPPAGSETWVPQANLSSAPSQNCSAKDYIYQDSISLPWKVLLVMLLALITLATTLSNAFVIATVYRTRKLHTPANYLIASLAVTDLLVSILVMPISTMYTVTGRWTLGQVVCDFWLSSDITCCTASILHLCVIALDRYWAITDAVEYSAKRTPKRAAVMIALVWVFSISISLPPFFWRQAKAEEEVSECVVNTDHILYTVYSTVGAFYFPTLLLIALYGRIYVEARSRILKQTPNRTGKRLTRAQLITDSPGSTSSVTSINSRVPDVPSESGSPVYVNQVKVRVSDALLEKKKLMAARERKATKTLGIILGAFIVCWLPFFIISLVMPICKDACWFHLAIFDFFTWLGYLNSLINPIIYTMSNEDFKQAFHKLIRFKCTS

The target of assay [8] is Sodium-dependent dopamine transporter (Homo sapiens, UniProt Q01959). The assay is described as follows: PDSP Secondary Binding target: SLC6A3 - Compounds are tested at 10 uM concentration, plate are incubated at room temperature in the dark for 90 minutes. Reaction are stopped by vacuum filtration onto 0.3% polyethyleneimine soaked filter mats using Filtermate harvester. Scintillation cocktail is then melted onto microwave-dried filters on a hot plate and the radio activity is counted in Microbia counter.
Chain of Sodium-dependent dopamine transporter (Q01959 whole entry): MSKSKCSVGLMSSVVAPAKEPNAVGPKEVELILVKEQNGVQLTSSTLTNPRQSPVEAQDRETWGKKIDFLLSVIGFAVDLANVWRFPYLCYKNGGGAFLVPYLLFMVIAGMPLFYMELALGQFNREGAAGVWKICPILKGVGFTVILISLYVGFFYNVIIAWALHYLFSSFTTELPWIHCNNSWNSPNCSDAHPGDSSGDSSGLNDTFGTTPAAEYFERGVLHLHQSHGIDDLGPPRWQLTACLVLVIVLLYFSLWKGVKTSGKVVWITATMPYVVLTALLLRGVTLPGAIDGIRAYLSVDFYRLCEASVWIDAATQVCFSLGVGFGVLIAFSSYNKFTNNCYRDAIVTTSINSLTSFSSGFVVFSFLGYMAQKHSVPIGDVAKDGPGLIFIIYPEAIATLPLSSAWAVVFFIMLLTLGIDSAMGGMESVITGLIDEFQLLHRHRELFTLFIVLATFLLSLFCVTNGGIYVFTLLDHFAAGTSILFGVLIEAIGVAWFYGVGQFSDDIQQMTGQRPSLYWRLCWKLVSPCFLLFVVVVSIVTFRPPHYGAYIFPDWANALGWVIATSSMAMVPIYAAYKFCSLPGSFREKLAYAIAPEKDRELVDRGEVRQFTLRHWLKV

The target in assay [9] is T3, Alpha-2C adrenergic receptor (Homo sapiens, UniProt P18825).
T3 sequence (P18825 whole entry): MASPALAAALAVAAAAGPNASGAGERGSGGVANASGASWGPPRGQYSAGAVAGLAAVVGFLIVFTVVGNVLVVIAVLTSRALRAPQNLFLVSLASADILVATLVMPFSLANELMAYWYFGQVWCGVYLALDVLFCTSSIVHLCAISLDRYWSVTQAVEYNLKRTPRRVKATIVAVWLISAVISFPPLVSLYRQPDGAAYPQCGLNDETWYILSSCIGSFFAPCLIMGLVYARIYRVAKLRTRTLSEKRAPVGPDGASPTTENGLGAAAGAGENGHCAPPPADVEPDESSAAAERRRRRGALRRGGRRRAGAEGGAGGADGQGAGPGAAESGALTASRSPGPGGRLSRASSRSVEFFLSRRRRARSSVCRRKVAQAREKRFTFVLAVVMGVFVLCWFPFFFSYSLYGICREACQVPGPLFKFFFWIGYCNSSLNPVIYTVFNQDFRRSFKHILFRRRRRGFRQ
The assay is described as follows: PDSP Secondary Binding target: ADRA2C - Compounds are tested at 10 uM concentration, plate are incubated at room temperature in the dark for 90 minutes. Reaction are stopped by vacuum filtration onto 0.3% polyethyleneimine soaked filter mats using Filtermate harvester. Scintillation cocktail is then melted onto microwave-dried filters on a hot plate and the radio activity is counted in Microbia counter.

Chain of 5-hydroxytryptamine receptor 1D (P28221 whole entry): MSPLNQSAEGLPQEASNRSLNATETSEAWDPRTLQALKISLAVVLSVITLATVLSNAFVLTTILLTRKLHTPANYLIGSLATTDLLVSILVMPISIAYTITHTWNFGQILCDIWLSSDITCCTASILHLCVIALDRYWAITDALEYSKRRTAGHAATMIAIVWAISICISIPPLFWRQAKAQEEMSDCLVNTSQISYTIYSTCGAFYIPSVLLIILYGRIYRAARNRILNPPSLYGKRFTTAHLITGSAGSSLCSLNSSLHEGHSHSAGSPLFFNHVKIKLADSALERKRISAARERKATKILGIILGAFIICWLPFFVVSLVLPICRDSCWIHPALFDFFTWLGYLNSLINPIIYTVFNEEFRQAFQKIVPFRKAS
Chain of D(1B) dopamine receptor (P21918 whole entry): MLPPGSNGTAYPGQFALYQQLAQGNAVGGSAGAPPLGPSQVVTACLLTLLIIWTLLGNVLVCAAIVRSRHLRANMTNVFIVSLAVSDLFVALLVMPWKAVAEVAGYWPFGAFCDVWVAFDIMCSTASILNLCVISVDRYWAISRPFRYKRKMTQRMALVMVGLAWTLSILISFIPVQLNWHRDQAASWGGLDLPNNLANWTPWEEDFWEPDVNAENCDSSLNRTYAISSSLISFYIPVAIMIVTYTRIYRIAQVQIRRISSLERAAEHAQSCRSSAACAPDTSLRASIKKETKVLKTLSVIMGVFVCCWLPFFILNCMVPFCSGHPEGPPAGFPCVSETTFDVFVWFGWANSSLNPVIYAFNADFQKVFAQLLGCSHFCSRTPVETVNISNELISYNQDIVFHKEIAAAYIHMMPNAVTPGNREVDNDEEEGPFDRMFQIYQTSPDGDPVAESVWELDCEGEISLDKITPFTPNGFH
Chain of 5-hydroxytryptamine receptor 2A (P28223 whole entry): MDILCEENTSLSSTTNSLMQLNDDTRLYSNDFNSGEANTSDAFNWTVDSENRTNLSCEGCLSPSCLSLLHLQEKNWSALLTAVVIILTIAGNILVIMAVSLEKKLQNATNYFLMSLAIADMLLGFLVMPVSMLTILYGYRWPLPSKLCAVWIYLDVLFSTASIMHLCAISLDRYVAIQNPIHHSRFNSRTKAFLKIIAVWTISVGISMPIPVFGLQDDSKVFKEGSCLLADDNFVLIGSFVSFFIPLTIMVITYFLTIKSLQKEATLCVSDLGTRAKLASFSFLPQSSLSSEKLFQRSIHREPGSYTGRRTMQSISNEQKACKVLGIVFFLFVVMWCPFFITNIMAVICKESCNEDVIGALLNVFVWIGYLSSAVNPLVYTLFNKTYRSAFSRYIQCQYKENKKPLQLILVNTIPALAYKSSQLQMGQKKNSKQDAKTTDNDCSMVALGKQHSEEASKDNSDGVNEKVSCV

Turning to `CCCCCNC(=N)N/N=C/c1c[nH]c2ccc(OC)cc12` [TEGASEROD MALEATE], the Ki in [1] was determined as 431 nM; in assay [2] it was 4120 nM; in [3], 50.1 nM; in assay [4] it was 83.9 nM.
On to `CCc1ccc(OCc2ccccc2C(=O)Nc2ccc3nc(C)cc(N)c3c2)cc1`, for which the Ki turned out to be 548 nM in [1], 2330 nM in assay [5] and 2780 nM in assay [3].
For the compound `COC(=O)C1=C(C)NC(C)=C(C(=O)OCCCN2CCC(c3ccccc3)(c3ccccc3)CC2)[C@H]1c1cccc([N+](=O)[O-])c1` [NIGULDIPINE], the Ki in [6] worked out at 347 nM; in [2] it was 1240 nM; in [7], 366 nM; in assay [8] it was 591 nM; in [4] it was 539 nM.
For the compound `Cc1c(P(=S)(c2ccccc2)c2ccccc2)n2ccccc2[n+]1C/C=C/c1ccccc1`, the inhibition constant Ki in assay [6] is 118 nM; in assay [1], 2790 nM; in assay [9], 222 nM; in assay [5], 1180 nM.
On to `NCCc1cn(S(=O)(=O)c2c(Cl)nc3sccn23)c2ccccc12`, for which the Ki was found to be 111 nM in assay [1], 562 nM in assay [7], 1720 nM in [8] and 216 nM in assay [3].
Regarding `O=S1(=O)c2cccc3cccc(c23)N1CCCN1CCN(c2ccc(F)cc2)CC1` [FANANSERIN], the Ki in assay [6] came out at 2870 nM; in assay [9], 1030 nM; in assay [8], 2690 nM; in assay [4], 518 nM.
On to `Cc1nn(C)c(C)c1-c1cccc2c1CC[C@H](N(C)C)C2`, for which the values for the Ki in [7], in assay [3] and in assay [4] were 10.2 nM, 5.5 nM and 2420 nM, respectively.
For the compound `CN(C)C(=O)N[C@H]1CC[C@H](CCN2CCN(c3cccc(Cl)c3Cl)CC2)CC1` [CARIPRAZINE HYDROCHLORIDE], the inhibition constant Ki turned out to be 129 nM in assay [7], 234 nM in assay [9] and 76.8 nM in [3].
Regarding `Cc1nc2sccn2c(=O)c1CCN1CCC(=C(c2ccc(F)cc2)c2ccc(F)cc2)CC1` [RITANSERIN], the Ki in assay [6] was 1450 nM; in assay [2] it was 493 nM; in assay [7] it was 281 nM; in assay [9], 375 nM; in assay [8] it was 318 nM.
Take `Cc1cc(C)cc(-c2cnc3cc(Cl)c(-c4cccc(O)c4)cc3c2OCCCN)c1`: the Ki in assay [1] worked out at 3430 nM; in assay [2], 993 nM; in assay [9], 846 nM; in assay [3], 292 nM.
For the compound `Cc1ccc2c(c1)c1c(n2CCc2ccc(C)nc2)CCN(C)C1` [LATREPIRDINE], the Ki in assay [1] came to 726 nM; in assay [9], 2920 nM; in assay [3] it was 419 nM.
Regarding `CN1CCCC(n2nc(Cc3ccc(Cl)cc3)c3ccccc3c2=O)CC1` (stereo not drawn) [AZELASTINE HYDROCHLORIDE], the Ki in assay [1] is 230 nM; in assay [7], 4230 nM; in assay [3], 885 nM.
In the case of `COc1ccc(NS(=O)(=O)c2sc3ccc(Cl)cc3c2C)cc1N1CCNCC1`, the results for the Ki in [6] and in [3] were 898 nM and 1080 nM, respectively.
As to `CN1CCC(=C2c3ccccc3CC(=O)c3sccc32)CC1` [KETOTIFEN FUMARATE], the Ki came to 2660 nM in assay [2] and 1750 nM in [7].
Turning to `C[C@@H](NCCCc1cccc(C(F)(F)F)c1)c1cccc2ccccc12` [CINACALCET HYDROCHLORIDE], the Ki in assay [6] came out at 444 nM; in assay [1], 842 nM; in assay [9] it was 1570 nM; in assay [3] it was 1700 nM; in [4], 1960 nM.
On to `COc1cccc([C@@H](C)NCCCc2ccccc2Cl)c1` [TECALCET HYDROCHLORIDE], for which the Ki came to 1400 nM in assay [6], 181 nM in [1], 1580 nM in assay [9] and 1440 nM in assay [4].
As for `CCCCN1CCC(COC(=O)c2cc(Cl)c(N)c3c2OCCO3)CC1`, the values for the inhibition constant Ki in assay [1], in [9] and in [3] were 964 nM, 673 nM and 3780 nM, respectively.
Turning to `CN1C[C@H](C(=O)N[C@]2(C)O[C@@]3(O)[C@@H]4CCCN4C(=O)[C@H](Cc4ccccc4)N3C2=O)C[C@@H]2c3cccc4[nH]cc(c34)C[C@H]21` [DIHYDROERGOTAMINE MESYLATE], the Ki came out at 2950 nM in [2], 108 nM in assay [7] and 39.1 nM in assay [4].
For `OCc1cc(C(O)CNCCCCCCOCCCCc2ccccc2)ccc1O` (stereo not drawn) [SALMETEROL], the values for the Ki in assay [7], in assay [8] and in assay [3] were 1990 nM, 149 nM and 1040 nM, respectively.
In the case of `COc1cc(-n2cnc3cc(-c4ccc(Cl)cc4)sc3c2=O)ccc1OCCN1CCCC1`, the Ki amounted to 1240 nM in assay [5] and 3560 nM in assay [3].
With `Cc1nc(-c2ccc(-c3ccc(C(=O)N4CCc5cc6c(cc54)C4(CCN(C)CC4)CO6)cc3)c(C)c2)no1` [SB-224289], the Ki was 1780 nM in assay [1], 1080 nM in [2], 1260 nM in assay [5] and 1180 nM in assay [8].
Regarding `CN1C2CCC1CC(OC(c1ccc(F)cc1)c1ccc(F)cc1)C2` (stereo not drawn), the Ki in assay [1] turned out to be 17.4 nM; in [2], 393 nM; in assay [5] it was 9.74 nM; in assay [3] it was 1130 nM.
For the compound `COc1ccc(NC(=O)c2ccc(-c3ccc(-c4noc(C)n4)cc3C)cc2)cc1OCCN(C)C`, the Ki stood at 35.7 nM in assay [1]; 1.18 nM in assay [7]; 704 nM in [9]; 1910 nM in assay [5]; 984 nM in assay [8]; 15 nM in assay [3].
As to `CCOC(=O)c1c(C)[nH]c2ccc3c(c12)CN1CCc2cc(OC)ccc2C1O3` (stereo not drawn), the Ki stood at 1940 nM in [6], 2160 nM in assay [7], 585 nM in [9] and 673 nM in assay [8].
As to `CCc1nn(CCCN2CCN(c3cccc(Cl)c3)CC2)c(=O)n1CCOc1ccccc1` [NEFAZODONE HYDROCHLORIDE], the Ki worked out at 262 nM in assay [7], 359 nM in assay [9] and 122 nM in [3].
`NC[C@@H]1O[C@H](C23CC4CC(CC(C4)C2)C3)Cc2c1ccc(O)c2O`: the Ki amounted to 3.02 nM in assay [2], 71.7 nM in [9] and 478 nM in [8].
